# Test results reported in ChEMBL document CHEMBL2073992, “Polarized transport of docetaxel and vinblastine mediated by P-glycoprotein in human intestinal epithelial cell monolayers” (Biochem Pharmacol, 1994).
# Target: ATP-dependent translocase ABCB1 (Homo sapiens, UniProt P08183)
# Assay: TP_TRANSPORTER: transepithelial transport (basal to apical) in Caco-2 cells
# Assay type: functional, cell-based
# Chain of ATP-dependent translocase ABCB1 (P08183 whole entry): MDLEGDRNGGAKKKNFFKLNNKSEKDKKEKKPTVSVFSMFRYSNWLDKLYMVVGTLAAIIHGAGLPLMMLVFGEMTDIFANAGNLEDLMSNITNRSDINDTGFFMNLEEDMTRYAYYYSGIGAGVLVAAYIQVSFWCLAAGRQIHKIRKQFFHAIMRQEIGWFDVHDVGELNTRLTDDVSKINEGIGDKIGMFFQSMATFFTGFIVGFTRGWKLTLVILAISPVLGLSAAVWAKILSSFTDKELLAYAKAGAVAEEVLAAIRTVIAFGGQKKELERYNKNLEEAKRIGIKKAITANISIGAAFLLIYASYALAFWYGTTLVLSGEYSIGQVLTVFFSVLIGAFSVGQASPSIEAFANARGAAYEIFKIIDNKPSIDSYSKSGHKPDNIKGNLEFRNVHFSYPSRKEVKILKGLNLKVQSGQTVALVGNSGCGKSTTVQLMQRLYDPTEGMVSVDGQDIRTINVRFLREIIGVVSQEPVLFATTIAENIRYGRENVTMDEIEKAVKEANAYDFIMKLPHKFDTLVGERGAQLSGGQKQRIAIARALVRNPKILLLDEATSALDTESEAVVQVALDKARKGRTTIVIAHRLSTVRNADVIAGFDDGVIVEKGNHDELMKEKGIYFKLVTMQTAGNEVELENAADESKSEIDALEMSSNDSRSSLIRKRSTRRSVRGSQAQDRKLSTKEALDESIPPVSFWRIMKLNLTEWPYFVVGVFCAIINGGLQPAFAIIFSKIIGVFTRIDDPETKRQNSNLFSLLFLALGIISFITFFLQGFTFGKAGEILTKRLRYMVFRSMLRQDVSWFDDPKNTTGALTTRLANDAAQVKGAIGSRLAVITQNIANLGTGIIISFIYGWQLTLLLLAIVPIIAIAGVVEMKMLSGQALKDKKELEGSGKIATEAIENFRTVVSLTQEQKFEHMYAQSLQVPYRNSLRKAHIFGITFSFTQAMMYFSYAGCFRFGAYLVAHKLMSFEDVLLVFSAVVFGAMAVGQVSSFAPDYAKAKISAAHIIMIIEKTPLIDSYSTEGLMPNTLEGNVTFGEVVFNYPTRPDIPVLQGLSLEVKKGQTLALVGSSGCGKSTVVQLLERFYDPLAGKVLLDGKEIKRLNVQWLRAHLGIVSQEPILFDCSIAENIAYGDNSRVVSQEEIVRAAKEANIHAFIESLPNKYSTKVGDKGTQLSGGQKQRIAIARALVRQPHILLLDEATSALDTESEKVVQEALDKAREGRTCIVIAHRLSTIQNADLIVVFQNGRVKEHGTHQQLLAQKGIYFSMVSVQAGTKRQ
structure (smiles),measurement,value
CC(=O)O[C@@]12CO[C@@H]1C[C@H](O)[C@@]1(C)C(=O)[C@H](O)C3=C(C)[C@@H](OC(=O)[C@H](O)[C@@H](NC(=O)OC(C)(C)C)c4ccccc4)C[C@@](O)([C@@H](OC(=O)c4ccccc4)[C@H]21)C3(C)C.O.O.O [DOCETAXEL],Activity,substrate [+]
